Earlier results in patent publication US20080254073A1, “Transdermal Patch Comprising Paroxetine” (IKSU PARMACEUTICAL CO., LTD., priority 2005, published 2008).

Experiments:
[1] = not given; remark: listed apart in the source

- partition coefficient of the drug using octanol-water: 169.20±17.19
- log P (octanol-water): 2.23
- elimination half-life ([1]; after multiple oral administration, healthy volunteers): about 24 hours
- time to reach maximum plasma concentration of the drug ([1]; oral administration, healthy volunteers): about five
- influence of food or antacid on absorption ([1]; oral, administered together with food or antacid): not influenced by food or antacid
- difference in the area under the plasma concentration-time curve (AUC) ([1]; oral, differences among individuals): about 35 times
SMILES: Fc1ccc([C@@H]2CCNC[C@H]2COc2ccc3c(c2)OCO3)cc1 [Paroxetine]
